{"source": "patent US8497298B2", "about": "“Use of benzo-fused heterocycle sulfamide derivatives for lowering lipids and lowering blood glucose levels” (Janssen Pharmaceutica NV, priority 2005, dated 2013)", "key": {"[1]": {"tested_on": "Zucker diabetic fatty (ZDF Gmi-fa/fa) rats", "assay": "Zucker Diabetic Fatty Rats Assay with 29 day wash-out (Example 16)", "type": "in vivo, rat", "conditions": "for Blood Glucose Level Day 0: Day 0 (baseline), ad lib fed; for Blood Glucose Level Day 36: then 29 days wash-out", "description": "(§1) Compound #8 was suspended in 0.5% Methocel using a hand held homogenizer to reduce the particle size and a magnetic stir bar and stir plate to keep the particles homogeneously suspended throughout the dosing period. 0.5% Hydroxypropyl Methylcellulose (Methocel) used as vehicle/control. Compound #8 was tested in both diabetic models of mouse and rat.\n(§2) In this study, female Zucker diabetic fatty (ZDF Gmi-fa/fa) rats were selected for glucose lowering effect. ZDF rats from (Charles River Laboratories, Wilmington, Mass.) at 7 weeks of age were individually housed and fed with C13004 diet (obtained from Research Diets, New Brunswick, N.J.). All of the rats were quarantined for a period of one week before transfer to the animal procedure room. A drop of blood (about 2 microliters) was collected by tail puncture and glucose concentration was detected with a glucometer (OneTouch UltraSmart, Lifescan, Milpitas, Calif.).\nZDF rats at 8 weeks of age were randomized into four treatment groups based on glucose values (first criterion, average of 150 mg/dL) and body weight (second criterion, average of 240 g). 13 rats were allocated into 4 treatment groups of 3 rats each for Compound #8 treated groups and 4 rats for the non-treated group. The three groups were then treated with 10 mg/kg Compound #8, 30 mg/kg Compound #8, and 100 mg/kg Compound #8 in 0.5 methylcellulose, respectively.\nThe rats were orally gavaged once daily (at 1500-1700 hour) with vehicle control (0.5% Methocel, pH7.4) or vehicle containing Compound #8 for 7 days. The dosing volume was 5 mL/kg body weight (1.2 mL for 250 gram rat). The rats were fed ad lib throughout the study. The rats were then allowed 29 days of wash-out period, where no dosing was administered.\nBasal glucose levels after treatments were measured on Day 0 (baseline) and Day 36 (after 7 days dosing and 29 days wash-out) in ad lib fed rats with a glucometer (OneTouch UltraSmart, Lifescan, Milpitas, Calif.) after collecting two microliters of blood through tail puncture.\nData from this study was analyzed using the standard two-tailed Student's t-test and are expressed below as means and standard errors, with results as listed in Table 15 below."}, "[2]": {"tested_on": "Zucker diabetic fatty (ZDF Gmi-fa/fa) rats", "assay": "Oral Glucose Tolerance Test (OGTT) in Zucker diabetic fatty rats, Day 7 (Example 15)", "type": "in vivo, rat", "conditions": "for AUC for blood glucose (OGTT) / OGTT blood glucose 30 min / OGTT blood glucose 60 min / OGTT blood glucose 90 min / OGTT blood glucose 120 min: Day 7; for OGTT blood glucose 0 min: Day 7, 4 hour-fasted, 2g/kg glucose", "description": "as §1\nas §2, with “effect and oral glucose tolerance test (OGTT) studies.” for “effect.”\nZDF rats at 8 weeks of age were randomized into four treatment groups based on glucose values (first criterion, average of 150 mg/dL) and body weight (second criterion, average of 240 g). 32 rats were allocated into 4 treatment groups of 8 rats each. The four groups were then treated with 0.5% Methocel (vehicle), 10 mg/kg Compound #8, 30 mg/kg Compound #8, and 100 mg/kg Compound #8 in vehicle, respectively.\nThe rats were orally gavaged once daily (at 1500-1700 hour) with vehicle control (0.5% Methocel, pH7.4) or vehicle containing Compound #8 for 7 days. The dosing volume was 5 mL/kg body weight (1.2 mL for 250 gram rat). The rats were fed ad lib throughout the study.\nBasal glucose levels after treatments were measured on Day 4 and Day 6 in 2 hour fasted rats with a glucometer (OneTouch UltraSmart, Lifescan, Milpitas, Calif.) after collecting two microliters of blood through tail puncture. Oral Glucose Tolerance Test (OGTT) was performed on Day 7 in 4 hour-fasted rats. Two hours after being dosed with Compound #8 or vehicle, the rats were gavaged with a 2g/kg of 50% glucose solution right after basal glucose levels measurement (0 minute). Blood glucose levels were then measured at 30, 60, 90 and 120 minutes through tail puncture.\nData from this study was analyzed using the standard two-tailed Student's t-test and are expressed below as means and standard errors."}, "db/db mice": {"tested_on": "db/db mice", "assay": "Diabetic db/db Mouse In Vivo Assay (Example 13)", "conditions": "female db/db mice, A300 mg/kg oral gavage once daily", "description": "Db/db mice are known in the art to be susceptible to Type II diabetes (Sharma K, McCue P, Dunn S R. Am J Physiol Renal Physiol. 2003 June;284(6):F1138-44). The Db/db mice are also known in the art to be a useful model for dylipidemia.\nFemale db/db mice (C57BL/6J-Lep^db/db, Jackson Laboratories, Bar Harbor, Me., USA) were received at 8 weeks of age and single-housed and fed with regular chow diet. Blood was collected by tail puncture and glucose was monitored with a glucometer (OneTouch Basic, Lifescan, Newtown, Pa.).\nMice at 10 weeks of age were randomized into treatment groups based on glucose values (first criterion, average of 250 mg/dl) and body weight (second criterion, average of 37 gram). The mice were orally gavaged once daily (0.2 ml at 1500-1700 hour) with vehicle control (0.5% methylcellulose, pH7.4) and vehicle containing test compound (A300 mg/kg). On day 11, the mice were fasted for 4 hr during light cycle (food was removed 0600-1000 hour) and blood glucose levels were measured through tail puncture with a glucometer at 1000 hour. The mice were then anaesthetized with sodium pentobarbital (1 ml/kg, i.p, Sleepaway, Fort Dodge, Iowa) and blood was drawn via cardiac puncture and collected into heparinized tubes.\nWhite adipose tissue (WAT) (retroperitoneal fat) and skeletal muscle (gastrocnemius and soleus muscle) were dissected and weighed. Plasma samples were obtained by centrifuge at 2,000 g for 15 minutes at 4° C. and subjected to measurement of insulin, HDL cholesterol and triglyceride.\nData shown below are expressed as the mean and standard error calculated using 9-10 mice per treatment group. The 2 tailed Student's t-Tests were used for statistic analysis. All animal studies complied with the guideline of the Institutional Animal Care and Use Committee."}}, "data": [{"compound": "NS(=O)(=O)NC[C@H]1COc2cc(Cl)ccc2O1", "note": "[Compound #8, (2S)-(−)-N-(6-Chloro-2,3-dihydro-benzo[1,4]dioxin-2-ylmethyl)-sulfamide]", "values": [{"measurement": "Blood Glucose Level Day 0", "setting": "[1]; 10 mg/kg group", "result": "222 ± 20", "unit": "mg/dL"}, {"measurement": "Blood Glucose Level Day 36", "setting": "[1]; 10 mg/kg oral once daily 7 days", "result": "295 ± 81", "unit": "mg/dL"}, {"measurement": "Blood Glucose Level Day 0", "setting": "[1]; 30 mg/kg group", "result": "229 ± 23", "unit": "mg/dL"}, {"measurement": "Blood Glucose Level Day 36", "setting": "[1]; 30 mg/kg oral once daily 7 days", "result": "247 ± 86", "unit": "mg/dL"}, {"measurement": "Blood Glucose Level Day 0", "setting": "[1]; 100 mg/kg group", "result": "228 ± 18", "unit": "mg/dL"}, {"measurement": "Blood Glucose Level Day 36", "setting": "[1]; 100 mg/kg oral once daily 7 days", "result": "219 ± 39", "unit": "mg/dL"}, {"measurement": "AUC for blood glucose (OGTT)", "setting": "[2]; 10 mg/kg", "result": "33279 ± 3607", "unit": "mg·min/dL"}, {"measurement": "OGTT blood glucose 30 min", "setting": "[2]; 10 mg/kg", "result": "281 ± 30"}, {"measurement": "OGTT blood glucose 60 min", "setting": "[2]; 10 mg/kg", "result": "316 ± 33"}, {"measurement": "OGTT blood glucose 90 min", "setting": "[2]; 10 mg/kg", "result": "293 ± 24"}, {"measurement": "OGTT blood glucose 120 min", "setting": "[2]; 10 mg/kg", "result": "252 ± 30"}, {"measurement": "OGTT blood glucose 0 min", "setting": "[2]; 10 mg/kg", "result": "186 ± 30"}, {"measurement": "AUC for blood glucose (OGTT)", "setting": "[2]; 30 mg/kg", "result": "28556 ± 2477", "unit": "mg·min/dL"}, {"measurement": "OGTT blood glucose 30 min", "setting": "[2]; 30 mg/kg", "result": "244 ± 24"}, {"measurement": "OGTT blood glucose 60 min", "setting": "[2]; 30 mg/kg", "result": "263 ± 18"}, {"measurement": "OGTT blood glucose 90 min", "setting": "[2]; 30 mg/kg", "result": "253 ± 23"}, {"measurement": "OGTT blood glucose 120 min", "setting": "[2]; 30 mg/kg", "result": "221 ± 18"}, {"measurement": "OGTT blood glucose 0 min", "setting": "[2]; 30 mg/kg", "result": "163 ± 18"}, {"measurement": "AUC for blood glucose (OGTT)", "setting": "[2]; 100 mg/kg", "result": "21529 ± 984", "unit": "mg·min/dL"}, {"measurement": "OGTT blood glucose 30 min", "setting": "[2]; 100 mg/kg", "result": "209 ± 14"}, {"measurement": "OGTT blood glucose 60 min", "setting": "[2]; 100 mg/kg", "result": "200 ± 10"}, {"measurement": "OGTT blood glucose 90 min", "setting": "[2]; 100 mg/kg", "result": "175 ± 8"}, {"measurement": "OGTT blood glucose 120 min", "setting": "[2]; 100 mg/kg", "result": "145 ± 7"}, {"measurement": "OGTT blood glucose 0 min", "setting": "[2]; 100 mg/kg", "result": "123 ± 5"}, {"measurement": "Retroperitoneal Fat Weight", "setting": "db/db mice; day 11", "result": "1.31 ± 0.07", "unit": "g"}, {"measurement": "Skeletal Muscle Weight", "setting": "db/db mice; day 11", "result": "0.154 ± 0.00", "unit": "g"}, {"measurement": "Blood Glucose", "setting": "db/db mice; day 11, fasted 4 hr", "result": "210 ± 27", "unit": "mg/dL"}, {"measurement": "HDL Cholesterol", "setting": "db/db mice; day 11, plasma", "result": "55.9 ± 3.7", "unit": "mg/dL"}, {"measurement": "Triglycerides", "setting": "db/db mice; day 11, plasma", "result": "98 ± 41", "unit": "mg/dL"}, {"measurement": "fat to lean mass ratio", "setting": "db/db mice; p<0.01 vs vehicle 27.9±1.4", "result": "23.4±0.9"}, {"measurement": "Insulin levels versus vehicle treated animals", "setting": "db/db mice; plasma", "result": "not statistically different"}]}]}
